Source: EP4389111A1, “METHOD OF PREPARATION OF C[…] […] AND C[…] […]” (Aero-Bw K. Domagala Sp. Jawna, priority 2022, dated 2024)
Values joined by “and” are separate entries in the source; they are usually repeats but may differ in a detail not shown here. Identical values can stand only once.

Test system: Salmonella typhimurium TA98
Assay: Ames test, strain TA98 (reading frame shift)
Assay type: cell-based
Settings: positive control at 2 µg/mL

## O=[N+]([O-])c1ccc2c(c1)Cc1ccccc1-2 [Extract 2-NF, 2-nitrofluorene]
  MOI (Multiplicity of induction compared to baseline): 6.9 and 5.6
